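Growth conditions: 96-well plates. Treatment: test compound, 48 hours, 5 concentrations. Analysis: linear interpolation between bracketing concentrations; unreached endpoints set to highest concentration. GI50 = concentration required for 50% inhibition of growth. Definition used: TGI = concentration required for complete inhibition of growth.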
Tests used:
Test in all cases: DTP human tumour cell line panel, 48 h
[1] = system: 786-0 renal
[2] = system: A498 renal
[3] = system: A549 NSCLC
[4] = system: ACHN renal
[5] = system: BT-549 breast
[6] = system: CAKI-1 renal
[7] = system: CCRF-CEM leukemia
[8] = system: COLO 205 colon
[9] = system: DU-145 prostate
[10] = system: HCC-2998 colon
[11] = system: HCT-116 colon
[12] = system: HCT-15 colon
[13] = system: HL-60(TB) leukemia
[14] = system: HOP-62 NSCLC
[15] = system: HOP-92 NSCLC
[16] = system: HS 578T breast
[17] = system: HT29 colon
[18] = system: IGROV1 ovarian
[19] = system: K-562 leukemia
[20] = system: KM12 colon
[21] = system: LOX IMVI melanoma
[22] = system: M14 melanoma
[23] = system: MALME-3M melanoma
[24] = system: MCF7 breast
[25] = system: MDA-MB-231 breast
[26] = system: MDA-MB-435
[27] = system: MOLT-4 leukemia
[28] = system: NCI-H23 lung
[29] = system: NCI-H460 lung
[30] = system: NCI-H522 lung
[31] = system: NCI/ADR-RES ovarian
[32] = system: OVCAR-3 ovarian
[33] = system: OVCAR-4 ovarian
[34] = system: OVCAR-5 ovarian
[35] = system: OVCAR-8 ovarian
[36] = system: PC-3 prostate
[37] = system: RPMI-8226 leukemia
[38] = system: RXF 393 renal
[39] = system: SF-268 CNS
[40] = system: SF-295 CNS
[41] = system: SF-539 CNS
[42] = system: SK-MEL-2 melanoma
[43] = system: SK-MEL-5 melanoma
[44] = system: SK-OV-3 ovarian
[45] = system: SN12C renal
[46] = system: SNB-19 CNS
[47] = system: SNB-75 CNS
[48] = system: SR leukemia
[49] = system: SW-620 colon
[50] = system: T-47D breast
[51] = system: TK-10 renal
[52] = system: U251 CNS
[53] = system: UACC-257 melanoma
[54] = system: UO-31 renal

Q: Which GI50 [1] does the source give for `CNCCn1c(=O)c2cc(OC)c(OC)cc2c2cnc3cc4c(cc3c21)OCO4` here?
A: Its GI50 is under 10 nM.

Q: What about the TGI [1] of the same compound?
A: The TGI was 16.8 nM.

Q: And the GI50 [2]?
A: Its GI50 is 19.4 nM.

Q: And the TGI [2]?
A: The TGI was 135 nM.

Q: And the GI50 [3]?
A: Its GI50 is under 10 nM.

Q: What about the TGI [3] of the same compound?
A: Its TGI is 1310 nM.

Q: And the GI50 [4]?
A: Its GI50 is under 10 nM.

Q: And the TGI [4]?
A: Its TGI is 1120 nM.

Q: And the GI50 [5]?
A: Its GI50 is 30.9 nM.

Q: What about the TGI [5] of the same compound?
A: Its TGI is 1790 nM.

Q: What about the GI50 [6] of the same compound?
A: Its GI50 is under 10 nM.

Q: What about the TGI [6] of the same compound?
A: The TGI was 128 nM.

Q: And the GI50 [7]?
A: Its GI50 is under 10 nM.

Q: What about the TGI [7] of the same compound?
A: The TGI was 1190 nM.

Q: And the GI50 [8]?
A: The GI50 was 30.4 nM.

Q: What about the TGI [8] of the same compound?
A: The TGI was 2060 nM.

Q: And the GI50 [9]?
A: Its GI50 is under 10 nM.

Q: What about the TGI [9] of the same compound?
A: Its TGI is 1270 nM.

Q: What about the GI50 [10] of the same compound?
A: Its GI50 is 48.4 nM.

Q: And the TGI [10]?
A: The TGI was 1790 nM.

Q: And the GI50 [11]?
A: The GI50 was under 10 nM.

Q: What about the TGI [11] of the same compound?
A: The TGI was 135 nM.

Q: What about the GI50 [12] of the same compound?
A: Its GI50 is 35.9 nM.

Q: And the TGI [12]?
A: The TGI was 1550 nM.

Q: And the GI50 [13]?
A: Its GI50 is under 10 nM.

Q: And the TGI [13]?
A: The TGI was 111 nM.

Q: What about the GI50 [14] of the same compound?
A: The GI50 was under 10 nM.

Q: And the TGI [14]?
A: Its TGI is 1610 nM.

Q: And the GI50 [15]?
A: Its GI50 is under 14.9 nM.

Q: And the TGI [15]?
A: The TGI was 518 nM.

Q: And the GI50 [16]?
A: The GI50 was 1680 nM.

Q: And the TGI [16]?
A: Its TGI is 4440 nM.

Q: And the GI50 [17]?
A: Its GI50 is 11.9 nM.

Q: And the TGI [17]?
A: Its TGI is 110 nM.

Q: And the GI50 [18]?
A: The GI50 was 27.6 nM.

Q: What about the TGI [18] of the same compound?
A: The TGI was 1760 nM.

Q: What about the GI50 [19] of the same compound?
A: Its GI50 is 25.2 nM.

Q: What about the TGI [19] of the same compound?
A: Its TGI is 2200 nM.

Q: And the GI50 [20]?
A: The GI50 was 48.3 nM.

Q: What about the TGI [20] of the same compound?
A: The TGI was 1600 nM.

Q: And the GI50 [21]?
A: The GI50 was under 10 nM.

Q: What about the TGI [21] of the same compound?
A: The TGI was 100 nM.

Q: What about the GI50 [22] of the same compound?
A: The GI50 was under 10 nM.

Q: What about the TGI [22] of the same compound?
A: Its TGI is 1360 nM.

Q: What about the GI50 [23] of the same compound?
A: Its GI50 is 50 nM.

Q: What about the TGI [23] of the same compound?
A: The TGI was 5750 nM.

Q: What about the GI50 [24] of the same compound?
A: The GI50 was under 10 nM.

Q: And the TGI [24]?
A: Its TGI is 1140 nM.

Q: What about the GI50 [25] of the same compound?
A: The GI50 was 190 nM.

Q: And the TGI [25]?
A: Its TGI is 1670 nM.

Q: And the GI50 [26]?
A: Its GI50 is 18.9 nM.

Q: What about the TGI [26] of the same compound?
A: The TGI was 2020 nM.

Q: What about the GI50 [27] of the same compound?
A: The GI50 was under 10 nM.

Q: And the TGI [27]?
A: Its TGI is 30.3 nM.

Q: What about the GI50 [28] of the same compound?
A: The GI50 was under 11.2 nM.

Q: And the TGI [28]?
A: The TGI was 1330 nM.

Q: What about the GI50 [29] of the same compound?
A: Its GI50 is under 10 nM.

Q: And the TGI [29]?
A: Its TGI is 217 nM.

Q: What about the GI50 [30] of the same compound?
A: Its GI50 is under 10 nM.

Q: And the TGI [30]?
A: Its TGI is 26.1 nM.

Q: What about the GI50 [31] of the same compound?
A: The GI50 was 32 nM.

Q: And the TGI [31]?
A: The TGI was 1510 nM.

Q: What about the GI50 [32] of the same compound?
A: The GI50 was 39.3 nM.

Q: What about the TGI [32] of the same compound?
A: Its TGI is 2020 nM.

Q: And the GI50 [33]?
A: The GI50 was 34.7 nM.

Q: And the TGI [33]?
A: Its TGI is 2210 nM.

Q: And the GI50 [34]?
A: The GI50 was 25.9 nM.

Q: What about the TGI [34] of the same compound?
A: The TGI was 304 nM.

Q: What about the GI50 [35] of the same compound?
A: Its GI50 is under 10 nM.

Q: And the TGI [35]?
A: Its TGI is 1340 nM.

Q: And the GI50 [36]?
A: Its GI50 is 21 nM.

Q: And the TGI [36]?
A: Its TGI is 1870 nM.

Q: What about the GI50 [37] of the same compound?
A: Its GI50 is 25.4 nM.

Q: What about the TGI [37] of the same compound?
A: The TGI was 915 nM.

Q: And the GI50 [38]?
A: Its GI50 is under 10 nM.

Q: What about the TGI [38] of the same compound?
A: Its TGI is 35.2 nM.

Q: What about the GI50 [39] of the same compound?
A: The GI50 was under 10 nM.

Q: What about the TGI [39] of the same compound?
A: The TGI was 1780 nM.

Q: And the GI50 [40]?
A: Its GI50 is under 10 nM.

Q: And the TGI [40]?
A: The TGI was under 15.5 nM.

Q: And the GI50 [41]?
A: The GI50 was under 10 nM.

Q: And the TGI [41]?
A: Its TGI is 10.3 nM.

Q: What about the GI50 [42] of the same compound?
A: The GI50 was 2320 nM.

Q: What about the TGI [42] of the same compound?
A: Its TGI is 4910 nM.

Q: And the GI50 [43]?
A: The GI50 was 10 nM.

Q: And the TGI [43]?
A: The TGI was 25.4 nM.

Q: And the GI50 [44]?
A: Its GI50 is under 10.4 nM.

Q: And the TGI [44]?
A: The TGI was 1820 nM.

Q: And the GI50 [45]?
A: The GI50 was under 10 nM.

Q: And the TGI [45]?
A: The TGI was 1250 nM.

Q: What about the GI50 [46] of the same compound?
A: Its GI50 is under 10 nM.

Q: What about the TGI [46] of the same compound?
A: Its TGI is 2280 nM.

Q: And the GI50 [47]?
A: The GI50 was under 10 nM.

Q: What about the TGI [47] of the same compound?
A: Its TGI is 65.8 nM.

Q: And the GI50 [48]?
A: The GI50 was under 10 nM.

Q: And the GI50 [49]?
A: The GI50 was 12.1 nM.

Q: What about the TGI [49] of the same compound?
A: The TGI was 1950 nM.

Q: What about the GI50 [50] of the same compound?
A: The GI50 was under 10 nM.

Q: What about the TGI [50] of the same compound?
A: The TGI was 1480 nM.

Q: And the GI50 [51]?
A: The GI50 was 46.5 nM.

Q: What about the TGI [51] of the same compound?
A: Its TGI is 2160 nM.

Q: And the GI50 [52]?
A: Its GI50 is under 10 nM.

Q: What about the TGI [52] of the same compound?
A: Its TGI is 24.2 nM.

Q: What about the GI50 [53] of the same compound?
A: The GI50 was 26.7 nM.

Q: And the TGI [53]?
A: Its TGI is 5660 nM.

Q: What about the GI50 [54] of the same compound?
A: Its GI50 is under 10 nM.

Q: What about the TGI [54] of the same compound?
A: Its TGI is 1210 nM.

From PubChem BioAssay (NCI)
